Experimental data as given in BindingDB's records for doi:10.1021/jm00352a016 (1983).

Molecular target: Adenylate kinase 2 (Rattus norvegicus) (UniProt P29410)
Experiment: Inhibitory activity against rat adenylate kinase II (AK-II) isoenzyme was determined in the presence of ATP, non competitive inhibition

## Nc1ncnc2c1ncn2[C@@H]1O[C@H](CO)[C@@H](O)[C@H]1O [[U-14C]adenosine]
  Ki: 87 mM
